ChEMBL document CHEMBL5226351, “Sycosterol A, an α-Synuclein Inhibitory Sterol from the Australian Ascidian Sycozoa cerebriformis” (J Nat Prod, 2021)
Active and inactive are the calls of the source. The calls are words filed in the database; no cut-off is given here.

Tests used:
[1] = biological target: Alpha-synuclein (Homo sapiens) (UniProt P37840); experiment: Binding affinity to human alpha-Synuclein at compound to protein molar ratio of 5:1 incubated for 3 hrs by mass spectroscopy analysis
[2] = biological target: Alpha-synuclein (Homo sapiens) (UniProt P37840); experiment: Inhibition of human alpha-Synuclein aggregation at compound:protein ratio of 1:5 incubated for 72 hrs under shaking condition by Thioflavin T based fluorimeter assay relative to control; settings: concentration not given here
[3] = biological target: Alpha-synuclein (Homo sapiens) (UniProt P37840); experiment: Inhibition of human alpha-Synuclein aggregation at 400 uM incubated for 72 hrs under shaking condition by Thioflavin T based fluorimeter assay relative to control

For O=C(O[C@@H]1Cc2c(O)cc(O)cc2O[C@@H]1c1cc(O)c(O)c(O)c1)c1cc(O)c(O)c(O)c1, the Activity [1] was “Active” and the inhibition [2] was 93.6%.

With CC(CCC[C@@H](C)[C@H]1[C@H](O)[C@@H](O)[C@@H]2[C@]1(C)CC[C@@H]1[C@@]3(C)CC[C@@H](O)C[C@@H]3C[C@@H](O)[C@]12O)COS(=O)(=O)O (some centres undefined) the Activity [1] was “Active” and the inhibition [3] was 46.2%.
